Test [1] deals with E. coli K12 Δactivating enzyme. The test can be described thus: MIC, standard broth microdilution assay, deletion strains. The note with it: Escherichia coli, anaerobic conditions. Type of test: cell-based. How it is done: (§1) The ASKA strains of interest are validated for functional expression of the enzyme. If the protein is not expressed from a given expression vector the ORF is recloned. A strain overexpressing the activating enzyme from the ASKA library is then tested with the hit compound. If the hit has greater activity against this overexpressing strain as compared to the wild type, this indicates a prodrug. The test is performed in a standard broth microdilution assay for MIC determination. Hits with the lowest wild type MIC are then examined.
(§2) Cells were tested in a standard broth microdilution assay, inoculating 10^5 cells per well of a microtiter plate in LB broth. Overexpression and deletion strains were compared to the appropriate isogenic wild type. IPTG was added at 1 mM to growth medium. Experiments involving nfnB and nfsA strains were performed under anaerobic conditions.
A general note: In broth dilution the organism is exposed to a series of concentrations in liquid medium.

The subject of test [2] is E. coli K12 ΔtolC overexpressing activating enzyme. Put plainly: MIC, standard broth microdilution assay, tolC deletion (MDR efflux). Type of test: cell-based.
Source text: Prodrugs are activated by activating enzymes into reactive molecules that bind to their targets, creating an irreversible sink. This may lead to insensitivity of the overall process to MDR efflux. In order to test this possibility, an E. coli K12 with a deletion in tolC coding for the outer membrane porin that is a component of the transenvelope MDRs was utilized (Li (2004) Drugs 64:159-204). This strain is highly sensitive to antibiotics (Tegos et al. (2002) Antimicrob. Agents Chemother. 46:3133-3141). […] The substrate specificity of AcrAB is remarkably broad, and includes essentially all small molecular weight amphipathic compounds. The AcrAB substrates include anions (SDS, fatty acids, bile acids), neutral compounds (macrolides, chloramphenicol, tetracyclines) and cations or compounds that can form cations (acridine, quaternary compound antiseptics, fluoroquinolones). AcrAB can extrude a natural broad spectrum antibiotics that evolved for good penetration, chloramphenicol and tetracycline; and also extrude synthetic broad-spectrums, the fluoroquinolones.
as §2

The subject of test [3] is E. coli K12 wt. Put plainly: MIC, standard broth microdilution assay. Format: cell-based. The note with it: LB broth, 10^5 cells per well, 1 mM IPTG. How it is done: as §1, §2
The subject of test [4] is strain overexpressing the activating enzyme, NfnB or NfsA. Put plainly: Dose-dependent killing of stationary state cells, plating and colony count. Format: cell-based, E. coli. The note with it: for sterilization of the population: nfnB^+ strain, limit of detection 6 logs of killing, <10 cells/ml.
Test [5] deals with wild type bacterial strain (E. coli), stationary state. The test is described as above. The note with it: anaerobic, 6 hours incubation, biphasic killing. Type of test: cell-based. As to the method:
FIG. 10 is a graphical representation of the dose-dependent killing of E. coli by metronidazole. Stationary phase cells grown in LB medium in the presence of 1 mM IPTG under anaerobic conditions were challenged for 6 hrs with increasing concentrations of metronidazole and then plated on LB agar plates.
The killing ability of metronidazole was examined. The wild type bacterial strain was grown to stationary state under anaerobic conditions, and dose-dependent killing after incubation with metronidazole for 6 hours was detected by plating and colony count (FIG. 10). […] This is the first observation of a sterilizing activity of an antibiotic against a stationary state bacterial population. Previously, it was only possible to kill persisters and sterilize an infection with peracetic acid (FIG. 2); (Spoering et al. (2001) J. Bacteriol. 183:6746-6751).

For test [6], the system named is E. coli K12 overexpressing activating enzyme. Put plainly: MIC, standard broth microdilution assay, overexpression strains. Type of test: cell-based. How it is done:
as §1, §2

Each structure is given as a SMILES string. In brackets after ≈: the same amount, converted by molar mass. Read-outs that look alike come from different tables or passages of the source.

Regarding `Cc1ncc([N+](=O)[O-])n1CCO` [Metronidazole], the MIC in test [1] (nfnB^− deletion strain) was 1120 µg/mL (≈ 6570 µM); in test [1] (nfsA^− deletion strain), 2250 µg/mL (≈ 13100 µM); in test [2] (Escherichia coli), 8.8 µg/mL (≈ 51.4 µM); in test [2] (ΔtolC, nfsA^+ overexpressing strain) it was “nfsA^+ 8.8 μg/ml”; in test [3] (Escherichia coli, K12WT, read-out: MIC), > 500 µg/mL; in test [3], 563 µg/mL (≈ 3290 µM). Moreover, the MIC in test [6] (Escherichia coli) is 8.8 µg/mL (≈ 51.4 µM); in test [6] (nfnB^+ overexpressing strain, 1 mM IPTG, anaerobic conditions), “nfnB^+ 8.8 μg/ml”; in test [6] (nfsA^+ overexpressing strain, 1 mM IPTG, anaerobic conditions) it was “nfsA^+ 8.8 μg/ml”; in test [6] (nfsA^+ overexpressing strain, 1 mM IPTG, anaerobic conditions, listed as metronidazole), 8.8 µg/mL (≈ 51.4 µM). In addition, the “sterilization of the population” value in test [4] was “completely “sterilized””; in test [4] (listed as metronidazole), “complete sterilization”. Also, the surviving persisters result in test [4] (strain overexpressing NfnB or NfsA, stationary state, 6 hours) is reported as “no surviving persisters were detected”. Moreover, in test [5], the tolerant persister cells result was “about 1%”. In test [6] (E. coli overexpressing NfnB), the “sensitivity of the overexpression strain as compared to the wild type control” value is on record as “greater than 50 fold”.

In general, MIC refers to the least concentration at which growth counts as inhibited.
